According to publication PMC5267425, “Identification of small molecule modulators of HIV-1 Tat and Rev protein accumulation” (Retrovirology, 2017):
“And” between values parts separate entries of the source, which are not always exact repeats. Identical values can stand only once.

Tested on: cellular gene expression in HeLa rtTA HIV∆Mls cells

Structure (SMILES): Cc1cc(NCc2cccnc2)n2ncc(-c3ccc(Cl)cc3)c2n1 [Compound 791, 3-(4-chlorophenyl)-5-methyl-N-(3-pyridinylmethyl)pyrazolo[1,5-a]pyrimidin-7-amine]
- LYSMD1 expression level (gene LYSMD1, 9147791-treated cells, two replicates): 6.83 and 7.15
- MAP3K12 expression level (gene MAP3K12, 9147791-treated cells, two replicates): 10.58 and 11.11
- MBD6 expression level (gene MBD6, 9147791-treated cells, two replicates): 19.55 and 19.21
- MBLAC2 expression level (gene MBLAC2, 9147791-treated cells, two replicates): 3.53 and 3.60
- MED1 expression level (gene MED1, 9147791-treated cells, two replicates): 16.72 and 17.76
- MKKS expression level (gene MKKS, 9147791-treated cells, two replicates): 33.76 and 31.64
- MLKL expression level (gene MLKL, 9147791-treated cells, two replicates): 8.65 and 8.80
- MORC2 expression level (gene MORC2, 9147791-treated cells, two replicates): 14.30 and 13.93
- MRPL1 expression level (gene MRPL1, 9147791-treated cells, two replicates): 13.37 and 12.84
- MRPS16 expression level (gene MRPS16, 9147791-treated cells, two replicates): 56.39 and 57.78
- MRPS18B expression level (gene MRPS18B, 9147791-treated cells, two replicates): 84.33 and 82.56
- MSL1 expression level (gene MSL1, 9147791-treated cells, two replicates): 19.35 and 20.08
- MTIF2 expression level (gene MTIF2, 9147791-treated cells, two replicates): 23.18 and 24.37
- MXI1 expression level (gene MXI1, 9147791-treated cells, two replicates): 11.96 and 11.72
- MYSM1 expression level (gene MYSM1, 9147791-treated cells, two replicates): 6.50 and 6.96
- NADK expression level (gene NADK, 9147791-treated cells, two replicates): 51.36 and 49.09
- NFX1 expression level (gene NFX1, 9147791-treated cells, two replicates): 16.88 and 17.47
- NHLRC2 expression level (gene NHLRC2, 9147791-treated cells, two replicates): 5.90 and 6.13
- NR2C1 expression level (gene NR2C1, 9147791-treated cells, two replicates): 12.80 and 13.28
- NSMAF expression level (gene NSMAF, 9147791-treated cells, two replicates): 20.81 and 21.54
- NT5DC3 expression level (gene NT5DC3, 9147791-treated cells, two replicates): 2.73 and 2.69
- NUFIP2 expression level (gene NUFIP2, 9147791-treated cells, two replicates): 18.50 and 18.17
- OSMR expression level (gene OSMR, 9147791-treated cells, two replicates): 33.63 and 36.47
- OTUD6B expression level (gene OTUD6B, 9147791-treated cells, two replicates): 9.61 and 9.84
- PATL1 expression level (gene PATL1, 9147791-treated cells, two replicates): 30.78 and 31.35
- PEX19 expression level (gene PEX19, 9147791-treated cells, two replicates): 25.90 and 26.36
- PHF1 expression level (gene PHF1, 9147791-treated cells, two replicates): 27.67 and 28.09
- PIP4K2C expression level (gene PIP4K2C, 9147791-treated cells, two replicates): 17.91 and 18.93
- PLD3 expression level (gene PLD3, 9147791-treated cells, two replicates): 114.37 and 115.61
- PLD6 expression level (gene PLD6, 9147791-treated cells, two replicates): 4.96 and 5.07
- PLEKHG4 expression level (gene PLEKHG4, 9147791-treated cells, two replicates): 9.09 and 8.55
- PLRG1 expression level (gene PLRG1, 9147791-treated cells, two replicates): 18.77 and 17.99
- PNPO expression level (gene PNPO, 9147791-treated cells, two replicates): 12.32 and 11.96
- POLR1B expression level (gene POLR1B, 9147791-treated cells, two replicates): 13.48 and 13.61
- PORCN expression level (gene PORCN, 9147791-treated cells, two replicates): 8.43 and 8.53
- PPIE expression level (gene PPIE, 9147791-treated cells, two replicates): 36.69 and 37.52
- PPPDE1 expression level (gene PPPDE1, 9147791-treated cells, two replicates): 25.65 and 26.33
- PPPDE2 expression level (gene PPPDE2, 9147791-treated cells, two replicates): 24.63 and 25.91
- PRDX5 expression level (gene PRDX5, 9147791-treated cells, two replicates): 527.71 and 539.87
- PRKAB1 expression level (gene PRKAB1, 9147791-treated cells, two replicates): 9.24 and 9.53
- PRKAB2 expression level (gene PRKAB2, 9147791-treated cells, two replicates): 9.63 and 9.56
- PRKAG2 expression level (gene PRKAG2, 9147791-treated cells, two replicates): 4.40 and 4.65
- PRPF38B expression level (gene PRPF38B, 9147791-treated cells, two replicates): 24.17 and 23.91
- RAD23A expression level (gene RAD23A, 9147791-treated cells, two replicates): 139.22 and 133.17
- RAD51C expression level (gene RAD51C, 9147791-treated cells, two replicates): 25.11 and 27.22
- RBM18 expression level (gene RBM18, 9147791-treated cells, two replicates): 22.42 and 23.14
- RDH14 expression level (gene RDH14, 9147791-treated cells, two replicates): 13.62 and 14.25
- REPS1 expression level (gene REPS1, 9147791-treated cells, two replicates): 11.08 and 11.40
- RETSAT expression level (gene RETSAT, 9147791-treated cells, two replicates): 39.84 and 41.20
- RFNG expression level (gene RFNG, 9147791-treated cells, two replicates): 19.96 and 19.40
- RILPL1 expression level (gene RILPL1, 9147791-treated cells, two replicates): 8.85 and 9.19
- RIPK2 expression level (gene RIPK2, 9147791-treated cells, two replicates): 9.51 and 9.78
- RNF135 expression level (gene RNF135, 9147791-treated cells, two replicates): 6.73 and 6.55
- RNF139 expression level (gene RNF139, 9147791-treated cells, two replicates): 14.33 and 14.56
- RNF146 expression level (gene RNF146, 9147791-treated cells, two replicates): 8.67 and 9.36
- RNF212 expression level (gene RNF212, 9147791-treated cells, two replicates): 23.40 and 24.53
- RPRD1A expression level (gene RPRD1A, 9147791-treated cells, two replicates): 17.67 and 18.23
- RPUSD3 expression level (gene RPUSD3, 9147791-treated cells, two replicates): 51.54 and 51.13
- RTTN expression level (gene RTTN, 9147791-treated cells, two replicates): 5.05 and 5.18
- RUNDC1 expression level (gene RUNDC1, 9147791-treated cells, two replicates): 7.46 and 7.03
- SDCCAG3 expression level (gene SDCCAG3, 9147791-treated cells, two replicates): 69.16 and 66.70
- SENP1 expression level (gene SENP1, 9147791-treated cells, two replicates): 10.13 and 10.39
- SENP5 expression level (gene SENP5, 9147791-treated cells, two replicates): 9.14 and 9.80
- SIKE1 expression level (gene SIKE1, 9147791-treated cells, two replicates): 10.16 and 10.46
- SLC26A11 expression level (gene SLC26A11, 9147791-treated cells, two replicates): 7.10 and 7.46
- SLC35B3 expression level (gene SLC35B3, 9147791-treated cells, two replicates): 9.59 and 9.09
- SLC38A6 expression level (gene SLC38A6, 9147791-treated cells, two replicates): 8.14 and 8.35
- SLC39A6 expression level (gene SLC39A6, 9147791-treated cells, two replicates): 55.62 and 53.39
- SMEK2 expression level (gene SMEK2, 9147791-treated cells, two replicates): 22.28 and 23.17
- SQSTM1 expression level (gene SQSTM1, 9147791-treated cells, two replicates): 402.87 and 398.40
- ST6GALNAC4 expression level (gene ST6GALNAC4, 9147791-treated cells, two replicates): 39.60 and 40.55
- ST7L expression level (gene ST7L, 9147791-treated cells, two replicates): 3.77 and 3.85
- STAMBP expression level (gene STAMBP, 9147791-treated cells, two replicates): 26.17 and 25.95
- STK24 expression level (gene STK24, 9147791-treated cells, two replicates): 98.53 and 99.63
- STK36 expression level (gene STK36, 9147791-treated cells, two replicates): 5.44 and 5.78
- STK40 expression level (gene STK40, 9147791-treated cells, two replicates): 6.18 and 6.16
- STX4 expression level (gene STX4, 9147791-treated cells, two replicates): 45.64 and 43.00
- TBCCD1 expression level (gene TBCCD1, 9147791-treated cells, two replicates): 7.66 and 8.12
- TGDS expression level (gene TGDS, 9147791-treated cells, two replicates): 10.85 and 10.65
- TIGD2 expression level (gene TIGD2, 9147791-treated cells, two replicates): 10.77 and 11.51
- TMEM33 expression level (gene TMEM33, 9147791-treated cells, two replicates): 13.53 and 12.82
- TMEM68 expression level (gene TMEM68, 9147791-treated cells, two replicates): 5.74 and 5.79
- TMEM120B expression level (gene TMEM120B, 9147791-treated cells, two replicates): 7.48 and 7.87
- TMEM126B expression level (gene TMEM126B, 9147791-treated cells, two replicates): 51.64 and 47.99
- TMEM134 expression level (gene TMEM134, 9147791-treated cells, two replicates): 16.44 and 17.07
- TMEM167B expression level (gene TMEM167B, 9147791-treated cells, two replicates): 13.61 and 13.31
- TRIM38 expression level (gene TRIM38, 9147791-treated cells, two replicates): 6.07 and 6.47
- TRMT2A expression level (gene TRMT2A, 9147791-treated cells, two replicates): 11.24 and 11.68
- TRNT1 expression level (gene TRNT1, 9147791-treated cells, two replicates): 14.44 and 15.17
- TTC9C expression level (gene TTC9C, 9147791-treated cells, two replicates): 44.37 and 45.86
- USP3 expression level (gene USP3, 9147791-treated cells, two replicates): 15.95 and 16.26
- USP45 expression level (gene USP45, 9147791-treated cells, two replicates): 4.03 and 4.15
- VHL expression level (gene VHL, 9147791-treated cells, two replicates): 23.74 and 22.96
- WDR73 expression level (gene WDR73, 9147791-treated cells, two replicates): 10.95 and 11.17
- XPO5 expression level (gene XPO5, 9147791-treated cells, two replicates): 32.34 and 33.37
- ZBED5 expression level (gene ZBED5, 9147791-treated cells, two replicates): 26.69 and 27.18
- ZBTB26 expression level (gene ZBTB26, 9147791-treated cells, two replicates): 10.25 and 9.99
- ZBTB34 expression level (gene ZBTB34, 9147791-treated cells, two replicates): 4.78 and 4.42
- ZCCHC4 expression level (gene ZCCHC4, 9147791-treated cells, two replicates): 6.80 and 6.69
- ZCCHC8 expression level (gene ZCCHC8, 9147791-treated cells, two replicates): 17.17 and 17.82
- ZCCHC9 expression level (gene ZCCHC9, 9147791-treated cells, two replicates): 6.71 and 6.52
- ZFP30 expression level (gene ZFP30, 9147791-treated cells, two replicates): 3.88 and 3.75
- ZFP36L2 expression level (gene ZFP36L2, 9147791-treated cells, two replicates): 6.55 and 6.96
- ZFP64 expression level (gene ZFP64, 9147791-treated cells, two replicates): 11.62 and 11.15
- ZFYVE27 expression level (gene ZFYVE27, 9147791-treated cells, two replicates): 15.03 and 14.85
- ZNF12 expression level (gene ZNF12, 9147791-treated cells, two replicates): 10.78 and 10.46
- ZNF91 expression level (gene ZNF91, 9147791-treated cells, two replicates): 4.92 and 4.68
- ZNF133 expression level (gene ZNF133, 9147791-treated cells, two replicates): 7.16 and 7.05
- ZNF184 expression level (gene ZNF184, 9147791-treated cells, two replicates): 6.52 and 6.31
- ZNF193 expression level (gene ZNF193, 9147791-treated cells, two replicates): 10.85
- ZNF195 expression level (gene ZNF195, 9147791-treated cells, two replicates): 11.04 and 10.45
- ZNF319 expression level (gene ZNF319, 9147791-treated cells, two replicates): 3.69 and 3.71
- ZNF320 expression level (gene ZNF320, 9147791-treated cells, two replicates): 11.36 and 12.30
- ZNF354A expression level (gene ZNF354A, 9147791-treated cells, two replicates): 9.92 and 9.13
- ZNF445 expression level (gene ZNF445, 9147791-treated cells, two replicates): 5.75 and 5.83
- ZNF566 expression level (gene ZNF566, 9147791-treated cells, two replicates): 3.15 and 2.91
- ZNF619 expression level (gene ZNF619, 9147791-treated cells, two replicates): 2.16 and 1.99
- ZNF664 expression level (gene ZNF664, 9147791-treated cells, two replicates): 57.01 and 56.94
- ZNF700 expression level (gene ZNF700, 9147791-treated cells, two replicates): 10.30 and 10.08
- ZNF706 expression level (gene ZNF706, 9147791-treated cells, two replicates): 34.34 and 36.65
- ZNF764 expression level (gene ZNF764, 9147791-treated cells, two replicates): 5.35 and 5.20
- ZNF780B expression level (gene ZNF780B, 9147791-treated cells, two replicates): 4.74 and 4.46
- ZNF800 expression level (gene ZNF800, 9147791-treated cells, two replicates): 6.37 and 6.62
- ZRSR2 expression level (gene ZRSR2, 9147791-treated cells, two replicates): 34.69 and 32.80
- ZSWIM7 expression level (gene ZSWIM7, 9147791-treated cells, two replicates): 4.48 and 4.71
- genes with changes of <fivefold in expression (of ~10,000 genes detected): 85
- genes with changes of <tenfold in expression (of ~10,000 genes detected): 4
